Here are results for three substances from patent publication US7622551B2, “Leukocyte stimulating peptides” (POSCO, priority 2004, dated 2009).

Entries after “also recorded” stand apart in the source; their conditions may differ. Where no end group is shown, it is not given here.

One experiment has as its target T1, FPR (Homo sapiens, UniProt P21462).
T1 construct: expressed in transfected cells; host or cells: RBL-2H3
T1 sequence (P21462 1-350): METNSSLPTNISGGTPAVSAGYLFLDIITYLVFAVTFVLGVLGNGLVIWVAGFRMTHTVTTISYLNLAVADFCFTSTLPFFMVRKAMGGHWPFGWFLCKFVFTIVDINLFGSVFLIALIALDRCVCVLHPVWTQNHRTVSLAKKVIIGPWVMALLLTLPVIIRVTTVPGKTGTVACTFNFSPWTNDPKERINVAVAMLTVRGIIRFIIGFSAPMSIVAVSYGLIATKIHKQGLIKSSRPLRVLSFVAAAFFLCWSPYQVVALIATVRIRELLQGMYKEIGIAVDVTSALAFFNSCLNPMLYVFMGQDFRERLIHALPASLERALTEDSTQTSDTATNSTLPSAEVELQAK
As to the kind of experiment: [Ca2+]i increase in FPR-expressing RBL-2H3 cells. Type of experiment: cell-based. The note with it: data not shown. The method, then: (§1) U937 (human histiocytic lymphoma cells), HL60 (human promyelocytic leukemia cells), Raw 264.7 (mouse macrophage), Jurkat (human acute T cell leukemia), PC12 (rat adrenal pheochromocytoma cells), 3Y1 (Rat embryonic fibroblasts), 3T3L1 (preadipocytes), and NCI-H292 (human mucoepidermoid pulmonary carcinoma cells) were obtained from the American Type Culture Collection (Rockville, Md.) and maintained as recommended. FPR- or FPRL1 expressing RBL-2H3 cells were cultured as described previously (He et al. J. Immunol. 2000. 165: 4598-4605). Cells were maintained at about 1×10^6 cells/ml under standard incubator conditions (humidified atmosphere, 95% air, 5% CO2, at 37° C.). HL60 cells were induced to differentiate into the granulocyte phenotype by adding dimethylsulfoxide (DMSO) (final concentration 1.25%, v/v) for 4 days to the culture medium, as described previously (Itoh et al. Blood. 1998. 92: 1432-1441).
(§2) The level of [Ca^2+]i was determined using Grynkiewicz's method using fura-2/AM (Grynkiewicz et al. J. Biol. Chem. 1985. 260: 3440-3550). Briefly, prepared cells were incubated with 3 μM of fura-2/AM at 37° C. for 50 min in serum-free RPMI 1640 medium under continuous stirring. 2×10^6 cells were aliquoted for each assay in Ca^2+ free Locke's solution (154 mM NaCl, 5.6 mM KCl, 1.2 mM MgCl2, 5 mM HEPES, pH 7.3, 10 mM glucose, and 0.2 mM EGTA). Fluorescence changes were measured at the dual excitation wavelength of 340 nm and 380 nm, and the calculated fluorescence ratio was translated into [Ca^2+]i.

In a further experiment the test system is ERK. In words: ERK phosphorylation in dHL60 cells (anti-phospho-ERK immunoblot). The experiment is classed as cell-based, human. The note with it: for Phosphorylation level of ERK: dHL60 cells (FIG. 9); for Effect of LY294002 (PI3K) on peptide-induced ERK phosphorylation / Effect of PD98059 (MEK) on peptide-induced ERK phosphorylation / Time of maximal ERK activation after stimulation / Effect of GF109203X (PKC) on peptide-induced ERK phosphorylation: dHL60 cells; for Effect of LY294002 (PI3K) on peptide-induced ERK phosphorylation: LY294002 (50 μM) 15 minutes; for Effect of LY294002 (PI3K) on peptide-induced ERK phosphorylation / Effect of PD98059 (MEK) on peptide-induced ERK phosphorylation / Effect of GF109203X (PKC) on peptide-induced ERK phosphorylation: 1 μM peptide 5 minutes; for Effect of PD98059 (MEK) on peptide-induced ERK phosphorylation: PD98059 (50 μM) 60 minutes; for Time of maximal ERK activation after stimulation: data not shown; for Effect of GF109203X (PKC) on peptide-induced ERK phosphorylation: GF109203X (5 μM) 15 minutes. As for the experimental part:
Each sample (30 μg of protein) was subjected to 8% SDS-PAGE, and phosphorylated ERK was quantified by immunoblot analysis with anti-phospho-ERK antibody. The results shown are from a single experiment representative of at least three independent experiments.
Extracellular signal regulated protein kinase (ERK) is a well-known intracellular enzyme that mediates diverse cellular responses (Sugden et al. Cell Signal. 1997. 9: 337-351). […] To compare the intracellular signaling involving these 4 peptides, dHL60 cells were pretreated either with LY294002 (50 μM), GF109203X (5 μM), or PD98059 (50 μM) or left untreated as a control. After being incubated for the indicated periods (15 minutes for LY294002 and GF109203X, 60 minutes for PD98059), the cells were stimulated with 1 μM of each peptide for 5 minutes.
Background: In western blotting, separated proteins are transferred to a membrane and probed.

Experiment [1] relates to differentiated HL60 cells. As to the kind of experiment: [Ca2+]i increase in fura-2 loaded dHL60 cells. Type of experiment: cell-based, human. The settings on record: for [Ca^2+]i: differentiated HL60 cells, fura-2, 1 μM of peptide. As for the experimental part:
as §1, §2

The test system of another experiment is human neutrophils. As to the kind of experiment: Superoxide generation (cytochrome c reduction) in human neutrophils. Type of experiment: cell-based. The note with it: for Superoxide production: 1 μM of peptide, cytochrome c reduction. As for the experimental part: Peripheral blood leukocyte concentrates were donated by the Ulsan Red Cross Blood Center (Ulsan, Korea). PBMCs were separated on a Histopaque-1077 gradient. After two washings with HBSS without Ca^2+ and Mg^2+, the PBMCs were suspended in 10% FBS containing RPMI and incubated for 60 min at 37° C. to let the monocytes attach to the culture dish. Cells were washed 5 times with warmed RPMI medium to remove lymphocytes, and then the attached monocytes were collected, as described previously (Bae et al. J. Leukoc. Biol. 1999. 65: 241-248). Human neutrophils were isolated according to standard procedures; i.e., dextran sedimentation, hypotonic lysis of erythrocytes, and using a medium lymphocyte separation gradient, as described previously (Seo et al. J. Immunol. 1997. 158: 1895-1901). Isolated human leukocytes were then used promptly.
We determined superoxide anion generation by measuring cytochrome c reduction using a microtiter 96 well plate ELISA reader (Bio-Tekinstruments, EL312e, Winooski, Vt.) as described previously (Bae et al. Blood. 2001. 97: 2854-2862). Human neutrophils (1×10^6 cells/100 μl of RPMI 1640 medium per well of a 96-well plate) were preincubated with 50 μM of cytochrome c at 37° C. for 1 min and then incubated with the indicated peptide concentrations. Superoxide generation was determined from change in light absorption at 550 nm over 5 minutes at 1 min intervals.

The test system of experiment [2] is undifferentiated HL60 cells. As to the kind of experiment: [Ca2+]i increase in undifferentiated HL60 cells. The settings on record: for [Ca^2+]i increase in undifferentiated HL60 cells: peptides 10 μM (FIG. 8). Type of experiment: cell-based, human. As for the experimental part:
as §1, §2

Experiment [3] has as its system differentiated HL60 cells. In words: Arachidonic acid (AA) release in [3H]AA-labeled dHL60 cells. The experiment is classed as cell-based, human. The settings on record: for AA release stimulating activity (in words) / Effect of cPLA2-specific inhibitors AACOCF3 and MAFP on peptide-induced AA release: dHL60 cells; for AA release stimulating activity (in words): 10 μM; for Effect of cPLA2-specific inhibitors AACOCF3 and MAFP on peptide-induced AA release: inhibitor pretreatment 15 min, 1 μM peptide; for Folds of increase (% of total), arachidonic acid release: differentiated HL60 cells, 10 μM of peptide. The method, then:
as §1
For the initial screening of the PS-SPCLs, we measured the AA release stimulating activity of each peptide pool. Cultured dHL60 cells (10^7 cells/ml) were pre-labeled with 0.5 μCi/ml of (^3H)-AA in RPMI 1640 medium containing 10% FBS for 90 min at 37° C. in a humidified incubator supplied with 95% air and 5% CO2, as described previously (Bae et al. J. Immunol. 2000. 164: 4089-4096). The labeled cells were then washed twice with serum-free RPMI 1640 and incubated in RPMI 1640 medium containing 0.1% fatty acid-free BSA for 15 min at 37° C. After discarding the medium, the cells were stimulated with various concentrations of peptide for the indicated times. Radioactivity in the medium and of collected cells was determined with a liquid scintillation counter. When investigating the effects of inhibitors, cells were preincubated with the indicated concentrations of each inhibitor or vehicle for 15 min prior to stimulation.

Take MKYYKM-NH2 [Peptide P21]: the “[Ca^2+]i in FPR-expressing RBL-2H3 cells / ligand for FPR” value with FPR was “not for FPR”. Also, in the experiment with ERK, the “Phosphorylation level of ERK” value is reported as “dramatic increase”; the “Effect of LY294002 (PI3K) on peptide-induced ERK phosphorylation” value (“Effect of LY294002 (PI3K)” below) is “PI3K and MEK-dependency”; the “Effect of PD98059 (MEK) on peptide-induced ERK phosphorylation” value was “PI3K and MEK-dependency”; the “Time of maximal ERK activation after stimulation” value (shortened to “Time of maximal ERK activation”) stood at 5 min. Further, the “[Ca^2+]i” value in experiment [1] came to 122 ± 15.7 nM. In addition, in the experiment on human neutrophils, the “Superoxide generation (in words)” value was “stimulate superoxide generation in a concentration-dependent manner” and the Superoxide production came out at 12.7 ± 1.76 nmole/10^6 cells. The “[Ca^2+]i increase in undifferentiated HL60 cells” value in experiment [2] is listed as “did not affect”. In addition, in experiment [3], the “AA release stimulating activity (in words)” value is “most potent”; the “Effect of cPLA2-specific inhibitors AACOCF3 and MAFP on peptide-induced AA release” value is listed as “blocked”; the “Folds of increase (% of total), arachidonic acid release” value (“Folds of increase (% of total)” below) turned out to be 2.86 ± 0.426 folds.

With MKYYYM-NH2 [Peptide P24], in the experiment with FPR, the “[Ca^2+]i in FPR-expressing RBL-2H3 cells / ligand for FPR” value is “not for FPR”. Moreover, in the experiment with ERK, the “Phosphorylation level of ERK” value is “dramatic increase”, the “Effect of GF109203X (PKC) on peptide-induced ERK phosphorylation” value is “not by GF109203X”, the “Effect of LY294002 (PI3K)” value was “partially blocked” and the “Time of maximal ERK activation” value turned out to be 5 min. In addition, the “Concentration of maximal activity, [Ca^2+]i increase” value in experiment [1] (dHL60 cells, data not shown) is recorded as “approximately 3 μM”. Moreover, the “[Ca^2+]i” value in experiment [1] was determined as 165 ± 23.4 nM. Also, in the experiment with human neutrophils, the “Superoxide generation (in words)” value is “stimulate superoxide generation in a concentration-dependent manner; also recorded: most potent” and the Superoxide production was 34.2 ± 0.48 nmole/10^6 cells. Moreover, in experiment [2], the “[Ca^2+]i increase in undifferentiated HL60 cells” value is “dramatically induced”. The “Effect of PTX on peptide-stimulated calcium signaling” value in experiment [2] (undifferentiated HL60 cells, data not shown) is recorded as “partially inhibited”. In addition, in experiment [3], the “AA release stimulating activity (in words)” value was “most potent”; the “Effect of cPLA2-specific inhibitors AACOCF3 and MAFP on peptide-induced AA release” value is “blocked”; the “Folds of increase (% of total)” value is reported as 2.93 ± 0.323 folds.

For RKYHVM-NH2 [Peptide P14], the “[Ca^2+]i in FPR-expressing RBL-2H3 cells / ligand for FPR” value with FPR is “not for FPR”. For the same substance, in the experiment with ERK, the “Phosphorylation level of ERK” value is on record as “dramatic increase”, the “Effect of GF109203X (PKC) on peptide-induced ERK phosphorylation” value is reported as “blocked”, the “Effect of LY294002 (PI3K)” value is given as “blocked” and the “Effect of PD98059 (MEK) on peptide-induced ERK phosphorylation” value is given as “blocked”. For the same substance, the “Time of maximal ERK activation” value in the experiment with ERK came to 5 min. Besides, in experiment [1], the “[Ca^2+]i” value came to 85 ± 9.5 nM. Besides, in the experiment on human neutrophils, the “Superoxide generation (in words)” value is reported as “stimulate superoxide generation in a concentration-dependent manner” and the Superoxide production was determined as 9.3 ± 1.42 nmole/10^6 cells. Moreover, the “[Ca^2+]i increase in undifferentiated HL60 cells” value in experiment [2] is “did not affect”. In experiment [3], the “AA release stimulating activity (in words)” value is “most potent”; the “Effect of cPLA2-specific inhibitors AACOCF3 and MAFP on peptide-induced AA release” value is on record as “blocked”; the “Folds of increase (% of total)” value is given as 2.23 ± 0.403 folds.
